{
  "source": "patent US11814364B2",
  "about": "“Pyridine N-oxide derivatives useful as factor XIa inhibitors” (Janssen Pharmaceutica NV, priority 2021, dated 2023)",
  "key": {"Factor XIa": {"target": "Factor XIa (Homo sapiens, UniProt P03951)", "sequence (P03951 388-625 limits assumed)": "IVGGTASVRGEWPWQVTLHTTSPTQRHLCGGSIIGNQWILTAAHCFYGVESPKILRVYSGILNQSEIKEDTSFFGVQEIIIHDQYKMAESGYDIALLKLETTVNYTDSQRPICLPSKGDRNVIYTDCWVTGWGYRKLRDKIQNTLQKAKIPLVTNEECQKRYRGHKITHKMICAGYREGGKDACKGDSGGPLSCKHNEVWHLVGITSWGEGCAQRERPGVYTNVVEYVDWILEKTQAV", "sequence (P03951 19-387 partner limits assumed)": "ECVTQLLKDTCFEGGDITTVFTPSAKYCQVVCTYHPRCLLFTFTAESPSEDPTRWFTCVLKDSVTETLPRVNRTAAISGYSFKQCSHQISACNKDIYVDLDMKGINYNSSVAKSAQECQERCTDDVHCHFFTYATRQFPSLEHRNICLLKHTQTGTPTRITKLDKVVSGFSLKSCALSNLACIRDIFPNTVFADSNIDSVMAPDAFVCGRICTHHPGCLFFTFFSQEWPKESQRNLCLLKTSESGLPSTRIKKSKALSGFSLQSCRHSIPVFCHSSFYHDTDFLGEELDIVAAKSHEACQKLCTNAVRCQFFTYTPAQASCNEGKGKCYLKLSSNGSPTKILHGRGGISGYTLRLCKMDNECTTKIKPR", "assay": "Factor XIa inhibition FLINT assay with fluorophore-quencher peptide substrate 5Fam-[…]-K5Tamra (end point EP or kinetic KIN reads)", "type": "biochemical", "settings": "end point read at 30 min; read-out: FXIa (EP) IC50", "from_the_text": "Factor XIa inhibition assay utilizing a fluorophore-quencher pair peptide substrate A fluorescence intensity (FLINT) based assay was used to monitor inhibition of Factor XIa. The peptide substrate, 5Fam-[…]-K5Tamra (purchased from New England Peptide) was chosen based on the FXI sequence. Conversion of zymogen FXI to its activated form, FXIa, occurs by proteolytic cleavage by […] at two sites, Arg146 and Arg180. The custom peptide used in this assay was based on the Arg146 cleavage site of FXI. The peptide substrate was designed with a fluorophore-quencher pair, where the fluorescence is quenched until FXIa cleaves the 8-mer peptide after the Arg residue.\nTest compound(s) were run in an 11-point, 3-fold serial dilution with a final top compound concentration of 100 nM. Final DMSO in assay was 2%. FXIa was preincubated with compound for 30-minutes and then substrate was added to initiate the reaction. The assay was run with either end point (EP) reads at 30 min or kinetic (KIN) reads at 5 min intervals over 30 minutes. […] More specifically, the assay was run as follows: • 100 nL of 0.01 mM test compound was dispensed into black 384-well non-binding Greiner BioOne 784900 plate for 0.1 μM final concentration; • 5 μL of 1× assay buffer was dispensed to column 24 (low control) and 5 μL 2× Factor XIa solution was dispensed to columns 1-23 (column 23 high control); • the plate was centrifuged with a “cover” plate at 500 rpm for 1 min • the plate was pre-incubated for 30 minutes at room temperature with plate covered; • 5 μL of 2×5Fam-[…]-K5Tamra peptide substrate was dispensed into the entire plate, columns 1-24; • the plate was centrifuged with a “cover” plate at 500 rpm for 1 min; • the plate was read monitoring fluorescence intensity on the BMG PHERAStar at room temperature, using fluorescence module 485 nm/520 nm.\nPercent inhibition (IC50) curves were generated per compound tested, and data was analyzed using a 4-parameter logistic fit using GeneData Screener. The relative fluorescence unit (RFU) values were normalized to percent inhibition using the following equation: % inhibition=((HC−LC)−(compound−LC)/(HC−LC))*100\nAn 11-point dose response curve for the test compound(s) was generated using GENDATA to determine IC50 value based on the following equation: Y=Bottom+(Top−Bottom)/(1+10^((log IC50−X)*HillSlope))\nResults listed in columns with […] designation were measured using endpoint reads where a single fluorescence reading was measured for each well at a 30 min timepoint."}, "human plasma kallikrein": {"target": "human plasma kallikrein (Homo sapiens, UniProt P03952)", "sequence (P03952 391-638 limits assumed)": "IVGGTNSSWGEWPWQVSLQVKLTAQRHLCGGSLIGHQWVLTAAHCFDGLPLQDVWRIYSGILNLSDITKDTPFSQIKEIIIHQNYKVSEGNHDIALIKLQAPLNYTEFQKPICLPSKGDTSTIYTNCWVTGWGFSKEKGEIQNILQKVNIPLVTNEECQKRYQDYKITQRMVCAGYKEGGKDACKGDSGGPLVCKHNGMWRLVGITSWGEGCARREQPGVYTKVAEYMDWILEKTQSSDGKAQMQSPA", "sequence (P03952 20-390 partner limits assumed)": "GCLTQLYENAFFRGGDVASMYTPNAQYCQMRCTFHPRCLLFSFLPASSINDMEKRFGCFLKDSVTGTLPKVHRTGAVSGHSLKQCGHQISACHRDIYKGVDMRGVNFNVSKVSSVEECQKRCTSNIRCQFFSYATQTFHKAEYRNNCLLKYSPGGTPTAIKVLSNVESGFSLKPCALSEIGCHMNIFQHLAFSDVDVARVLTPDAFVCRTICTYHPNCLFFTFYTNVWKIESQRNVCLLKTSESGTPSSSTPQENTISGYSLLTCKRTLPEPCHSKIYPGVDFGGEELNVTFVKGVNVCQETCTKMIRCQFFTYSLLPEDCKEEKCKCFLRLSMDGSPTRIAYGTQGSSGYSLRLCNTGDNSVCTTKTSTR", "assay": "Kallikrein inhibition FLINT assay with quenched AMC peptide substrate Z-Gly-Pro-Arg-AMC (end point EP or kinetic KIN reads)", "type": "biochemical", "outline": "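Enzyme and compound were preincubated 30 min before adding 50 μM AMC substrate in pH 7.5 Tris/NaCl/CaCl2/BSA/CHAPS buffer. AMC release was read at 30 min endpoint or every 5 min.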"}, "[1]": {"settings": "end point read at 30 min, read-out: Kallikrein (EP) IC50"}, "[2]": {"settings": "kinetic reads at 5 min intervals over 30 min, read-out: Kallikrein (KIN) IC50"}},
  "note": "Where two headings read alike, the source gives them in different places.",
  "data": [
    {"smiles": "COC(=O)Nc1ccc(-c2cnn(C(Cc3ccccc3)c3ccc(-c4cc(Cl)ccc4-n4cnnn4)c[n+]3[O-])c2)cc1", "note": "(stereo not drawn) [Example P39]", "values": [
      {"measurement": "IC50", "setting": "Factor XIa", "result": 0.0038, "unit": "µM"},
      {"measurement": "IC50", "setting": "human plasma kallikrein; [1]", "result": 0.0258, "unit": "µM"}
    ]},
    {"smiles": "COC(=O)Nc1ccc(-c2cnn(C(Cc3ccc(F)cc3)c3ccc(-c4cc(Cl)ccc4C#N)c[n+]3[O-])c2)cc1", "note": "(stereo not drawn) [Example Q1]", "values": [
      {"measurement": "IC50", "setting": "Factor XIa", "result": 0.621, "unit": "µM"},
      {"measurement": "IC50", "setting": "human plasma kallikrein; [1]", "result": 0.355, "unit": "µM"}
    ]},
    {"smiles": "O=C(O)c1ccc(-c2cnn([C@H](CC3CC3)c3ccc(-c4cc(Cl)ccc4-n4cnnn4)c[n+]3[O-])c2)cc1", "note": "[Example P6]", "values": [
      {"measurement": "IC50", "setting": "Factor XIa", "result": 0.0021, "unit": "µM"},
      {"measurement": "IC50", "setting": "human plasma kallikrein; [1]", "result": 0.0658, "unit": "µM"},
      {"measurement": "IC50", "setting": "human plasma kallikrein; [2]", "result": 0.0852, "unit": "µM"}
    ]},
    {"smiles": "O=C(O)c1ccc(-c2cnn(C(Cc3ccc(F)cc3)c3ccc(-c4cc(Cl)ccc4OCC(F)(F)F)c[n+]3[O-])c2)cc1", "note": "(stereo not drawn) [Example Q2]", "values": [
      {"measurement": "IC50", "setting": "Factor XIa", "result": 0.041, "unit": "µM"},
      {"measurement": "IC50", "setting": "human plasma kallikrein; [1]", "result": 0.674, "unit": "µM"}
    ]},
    {"smiles": "COC(=O)Nc1ccc(-c2cnn(C(Cc3ccccc3)c3ccc(-c4cc(Cl)c(F)cc4-n4cnnn4)c[n+]3[O-])c2)cc1", "note": "(stereo not drawn) [Example P46]", "values": [
      {"measurement": "IC50", "setting": "Factor XIa", "result": 0.0215, "unit": "µM"},
      {"measurement": "IC50", "setting": "human plasma kallikrein; [1]", "result": 0.341, "unit": "µM"}
    ]},
    {"smiles": "Nc1ccc(-c2cnn(C(CC3CC3)c3ccc(-c4cc(Cl)ccc4-n4cnnn4)c[n+]3[O-])c2)c(Cl)n1", "note": "(stereo not drawn) [Example P19]", "values": [
      {"measurement": "IC50", "setting": "Factor XIa", "result": 0.0034, "unit": "µM"},
      {"measurement": "IC50", "setting": "human plasma kallikrein; [1]", "result": 0.135, "unit": "µM"}
    ]},
    {"smiles": "O=C(O)c1ccc(-c2cnn(C(CC3CC3)c3ccc(-c4cc(Cl)ccc4-n4cc(Cl)nn4)c[n+]3[O-])c2)cc1", "note": "(stereo not drawn) [Example P4]", "values": [
      {"measurement": "IC50", "setting": "Factor XIa", "result": 0.0099, "unit": "µM"},
      {"measurement": "IC50", "setting": "human plasma kallikrein; [1]", "result": 0.517, "unit": "µM"}
    ]},
    {"smiles": "Nc1ccc(-c2cnn(C(CC3CC3)c3ccc(-c4c(-n5cnnn5)ccc(Cl)c4F)c[n+]3[O-])c2)cc1", "note": "(stereo not drawn) [Example P21]", "values": [
      {"measurement": "IC50", "setting": "Factor XIa", "result": 0.0101, "unit": "µM"},
      {"measurement": "IC50", "setting": "human plasma kallikrein; [1]", "result": 0.166, "unit": "µM"}
    ]},
    {"smiles": "COC(=O)Nc1ccc(-c2cnn(C(CC3CC3)c3c(F)cc(-c4c(-n5cnnn5)ccc(Cl)c4F)c[n+]3[O-])c2)cc1", "note": "(stereo not drawn) [Example P30]", "values": [
      {"measurement": "IC50", "setting": "Factor XIa", "result": 0.0033, "unit": "µM"},
      {"measurement": "IC50", "setting": "human plasma kallikrein; [1]", "result": 0.0573, "unit": "µM"}
    ]},
    {"smiles": "COC(=O)Nc1ccc(-c2cnn(C(CC3CC3)c3ccc(-c4cc(Cl)ccc4-n4cc(Cl)nn4)c[n+]3[O-])c2)cc1", "note": "(stereo not drawn) [Example P14]", "values": [
      {"measurement": "IC50", "setting": "Factor XIa", "result": 0.0944, "unit": "µM"},
      {"measurement": "IC50", "setting": "human plasma kallikrein; [1]", "result": 0.966, "unit": "µM"}
    ]},
    {"smiles": "CC(=O)Nc1ccc(-c2cnn(C(CC3CC3)c3ccc(-c4c(-n5cnnn5)ccc(Cl)c4F)c[n+]3[O-])c2)cc1", "note": "(stereo not drawn) [Example P23]", "values": [
      {"measurement": "IC50", "setting": "Factor XIa", "result": 0.0044, "unit": "µM"},
      {"measurement": "IC50", "setting": "human plasma kallikrein; [1]", "result": 0.0661, "unit": "µM"}
    ]},
    {"smiles": "O=C(O)c1cccc(-c2cnn(C(CC3CC3)c3ccc(-c4cc(Cl)ccc4-n4cnnn4)c[n+]3[O-])c2)c1", "note": "(stereo not drawn) [Example P3]", "values": [
      {"measurement": "IC50", "setting": "Factor XIa", "result": 0.0094, "unit": "µM"},
      {"measurement": "IC50", "setting": "human plasma kallikrein; [1]", "result": 0.0982, "unit": "µM"}
    ]},
    {"smiles": "CC(N)c1ccc(-c2cnn(C(Cc3ccccc3)c3ccc(-c4cc(Cl)ccc4-n4cnnn4)c[n+]3[O-])c2)cc1", "note": "(stereo not drawn) [Example P47]", "values": [
      {"measurement": "IC50", "setting": "Factor XIa", "result": 0.0222, "unit": "µM"},
      {"measurement": "IC50", "setting": "human plasma kallikrein; [1]", "result": 0.405, "unit": "µM"}
    ]},
    {"smiles": "O=C(O)c1ccc(-c2cnn(C(CC3CC3)c3ccc(-c4c(-n5cnnn5)ccc(Cl)c4F)c[n+]3[O-])c2)cc1", "note": "(stereo not drawn) [Example P9]", "values": [
      {"measurement": "IC50", "setting": "Factor XIa", "result": 0.00029, "unit": "µM"},
      {"measurement": "IC50", "setting": "human plasma kallikrein; [1]", "result": 0.037, "unit": "µM"}
    ]},
    {"smiles": "O=C(O)c1ccc(-c2cnn(C(CC3CC3)c3ccc(-c4cc(Cl)ccc4-n4cnnn4)c[n+]3[O-])c2)cc1", "note": "(stereo not drawn) [Example P1]", "values": [
      {"measurement": "IC50", "setting": "Factor XIa", "result": 0.0026, "unit": "µM"},
      {"measurement": "IC50", "setting": "human plasma kallikrein; [1]", "result": 0.124, "unit": "µM"},
      {"measurement": "IC50", "setting": "human plasma kallikrein; [2]", "result": 0.157, "unit": "µM"}
    ]},
    {"smiles": "COCCC(c1ccc(-c2c(-n3cnnn3)ccc(Cl)c2F)c[n+]1[O-])n1cc(-c2ccc(NC(=O)OC)cc2)cn1", "note": "(racemic) [Example P38]", "values": [
      {"measurement": "IC50", "setting": "Factor XIa", "result": 0.0032, "unit": "µM"},
      {"measurement": "IC50", "setting": "human plasma kallikrein; [1]", "result": 0.056, "unit": "µM"}
    ]},
    {"smiles": "Nc1ccc(-c2cnn(C(CC3CC3)c3ccc(-c4c(-n5cnnn5)ccc(Cl)c4F)c[n+]3[O-])c2)c[n+]1[O-]", "note": "(stereo not drawn) [Example P25]", "values": [
      {"measurement": "IC50", "setting": "Factor XIa", "result": 0.009, "unit": "µM"},
      {"measurement": "IC50", "setting": "human plasma kallikrein; [1]", "result": 0.749, "unit": "µM"}
    ]},
    {"smiles": "Nc1ccc(-c2cnn(C(Cc3ccccc3)c3ccc(-c4cc(Cl)ccc4-n4cnnn4)c[n+]3[O-])c2)c(Cl)n1", "note": "(stereo not drawn) [Example P50]", "values": [
      {"measurement": "IC50", "setting": "Factor XIa", "result": 0.0035, "unit": "µM"},
      {"measurement": "IC50", "setting": "human plasma kallikrein; [1]", "result": 0.0465, "unit": "µM"}
    ]},
    {"smiles": "O=C(O)c1cccc(-c2cnn(C(CC3CC3)c3c(F)cc(-c4cc(Cl)ccc4-n4cnnn4)c[n+]3[O-])c2)c1", "note": "(stereo not drawn) [Example P11]", "values": [
      {"measurement": "IC50", "setting": "Factor XIa", "result": 0.0069, "unit": "µM"},
      {"measurement": "IC50", "setting": "human plasma kallikrein; [1]", "result": 0.0814, "unit": "µM"}
    ]},
    {"smiles": "CS(=O)(=O)NC(=O)c1ccc(-c2cnn(C(CC3CC3)c3ccc(-c4cc(Cl)ccc4-n4cnnn4)c[n+]3[O-])c2)cc1", "note": "(stereo not drawn) [Example P18]", "values": [
      {"measurement": "IC50", "setting": "Factor XIa", "result": 0.0031, "unit": "µM"},
      {"measurement": "IC50", "setting": "human plasma kallikrein; [1]", "result": 0.396, "unit": "µM"}
    ]},
    {"smiles": "O=C(O)c1ccc(-c2cnn(C(Cc3ccc(F)cc3)c3ccc(-c4cc(Cl)ccc4-n4cnnn4)c[n+]3[O-])c2)cc1", "note": "(stereo not drawn) [Example P7]", "values": [
      {"measurement": "IC50", "setting": "Factor XIa", "result": 0.0008, "unit": "µM"},
      {"measurement": "IC50", "setting": "human plasma kallikrein; [1]", "result": 0.0041, "unit": "µM"},
      {"measurement": "IC50", "setting": "human plasma kallikrein; [2]", "result": 0.0013, "unit": "µM"}
    ]}
  ]
}
